# Tests used:
# [1] = tested on: MCF-7 (ER+ breast cancer) cells; experiment: cells; format: cell-based, human
# [2] = tested on: MDA-MB-231 (triple negative breast cancer) cells; format: cell-based, human
compound,measurement,setting,value
"O=C1c2ccccc2C(=O)c2c(O)c(C(c3ccc(F)cc3)N(CCCl)CCCl)cc(O)c21 (stereo not shown) [5k, 2-((Bis(2-chloroethyl)amino)(4-fluorophenyl)methyl)-1,4-dihydroxyanthracene-9,10-dione]",times more potent than chlorambucil,[1],over 100 times
"COc1cccc2c1C(=O)c1c(O)c3c(c(O)c1C2=O)C[C@@](O)(C(=O)CO)C[C@@H]3O[C@H]1C[C@H](N)[C@H](O)[C@H](C)O1 [Doxorubicin, reference compound]",IC50,"[1]; Homo sapiens, MCF7, 120 h, read-out: IC50 MCF-7",0.294 nM
"CC(C)CC(c1cc(O)c2c(c1O)C(=O)c1ccccc1C2=O)N(CCCl)CCCl (stereo not shown) [5f, 2-(1-(Bis(2-chloroethyl)amino)-3-methylbutyl)-1,4-dihydroxyanthracene-9,10-dione]",fold stronger than compound 5b,[2],approximately 70 fold
"O=C1c2ccccc2C(=O)c2c(O)c(C(c3ccccc3F)N(CCCl)CCCl)cc(O)c21 (stereo not shown) [5i, 2-((Bis(2-chloroethyl)amino) (2-fluorophenyl)methyl)-1,4-dihydroxyanthracene-9,10-dione]",fold increase in inhibitory activity compared to chlorambucil,[2],ca. 900 fold

# Source: paper PMC4747102 (European journal of medicinal chemistry, 2015)
